Results taken from patent publication US10947213B1 (Merck Patent GmbH, priority 2015, dated 2021).
Counter-ions that a name gives are not always drawn.

Molecular target: T1, TLR7/NFKb HEK cells (Homo sapiens, UniProt Q9NYK1)
T1 construct: expressed in transfected cells; host or cells: HEK cells (TLR7/NFKb reporter line)
T1 sequence (Q9NYK1 27-1049): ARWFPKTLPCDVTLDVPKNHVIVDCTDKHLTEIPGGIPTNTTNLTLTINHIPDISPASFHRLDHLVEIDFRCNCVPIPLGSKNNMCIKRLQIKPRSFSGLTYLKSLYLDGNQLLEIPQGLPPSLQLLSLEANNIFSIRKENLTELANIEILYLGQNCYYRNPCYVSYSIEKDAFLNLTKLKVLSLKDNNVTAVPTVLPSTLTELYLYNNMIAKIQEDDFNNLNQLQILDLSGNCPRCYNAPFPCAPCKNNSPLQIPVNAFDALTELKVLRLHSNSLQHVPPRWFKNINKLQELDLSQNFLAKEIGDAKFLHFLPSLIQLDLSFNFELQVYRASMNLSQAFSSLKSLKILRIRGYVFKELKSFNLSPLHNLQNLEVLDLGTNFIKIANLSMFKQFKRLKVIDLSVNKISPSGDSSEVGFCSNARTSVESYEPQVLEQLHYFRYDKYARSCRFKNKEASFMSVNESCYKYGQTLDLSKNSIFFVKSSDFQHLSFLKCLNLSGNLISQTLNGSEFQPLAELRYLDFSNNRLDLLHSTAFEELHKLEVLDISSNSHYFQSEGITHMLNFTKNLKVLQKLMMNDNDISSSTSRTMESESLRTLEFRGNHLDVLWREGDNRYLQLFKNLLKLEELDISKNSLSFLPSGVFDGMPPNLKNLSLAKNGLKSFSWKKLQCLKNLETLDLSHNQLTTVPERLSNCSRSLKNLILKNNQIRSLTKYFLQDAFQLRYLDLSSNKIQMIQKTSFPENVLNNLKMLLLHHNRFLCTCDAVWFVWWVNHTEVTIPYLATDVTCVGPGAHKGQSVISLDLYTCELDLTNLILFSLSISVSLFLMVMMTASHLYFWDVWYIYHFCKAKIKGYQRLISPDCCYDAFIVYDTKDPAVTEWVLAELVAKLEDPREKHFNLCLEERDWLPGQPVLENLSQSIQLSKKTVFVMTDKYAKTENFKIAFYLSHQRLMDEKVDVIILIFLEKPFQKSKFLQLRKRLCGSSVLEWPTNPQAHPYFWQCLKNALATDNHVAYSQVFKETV
Assay: HEK Cell Assay (TLR7/NFKb reporter, Steady-Glo luciferase readout)
Assay type: cell-based
Conditions: 30 min compound preincubation, then R*48 agonist for 5 hours, read-out: Potency
Method in brief: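 Steady-Glo luminescence after 5 h stimulation with R*48 agonist, following 30 min compound preincubation. Assay run in HEK cells carrying a TLR7/NFKb luciferase reporter, plated at 5000 cells/well and grown 24 h at 37° C (10% CO2) before treatment.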

| IC50 [nM] | Compound |
| --- | --- |
| < 1000 | CCN(C)CC(=O)NCC1CCN(c2ccc(C#N)c3ncccc23)CC1 [Compound 410, N-[1-(8-Cyano-quinolin-5-yl)-piperidin-4-ylmethyl]-2-(ethyl-methyl-amino)-acetamide] |
| < 1000 | CC(C(=O)N[C@@H]1C[C@H](C)CN(c2ccc(C(F)(F)F)c3ncccc23)C1)N1CCN(C)CC1 (stereo partly drawn) [Compound 516, 2-(4-Methyl-piperazin-1-yl)-N-[(3R,5S)-5-methyl-1-(8-trifluoromethyl-quinolin-5-yl)-piperidin-3-yl]-propionamide] |
| < 1000 | CCC(C)C(=O)N[C@@H]1C[C@H](C)CN(c2ccc(C#N)c3nccnc23)C1 (single isomer, unassigned) [Compound 154] |
| < 1000 | N#Cc1ccc(N2CCC(C(=O)NCCN3CCCCC3)CC2)c2nccnc12 [Compound 440, 1-(8-Cyano-quinoxalin-5-yl)-piperidine-4-carboxylic Acid (2-piperidin-1-yl-ethyl)-amide] |
| < 1000 | CN1CCCC1C(=O)NCC1CCN(c2ccc(C#N)c3ncccc23)CC1 (stereo not shown) [Compound 418, 1-Methyl-pyrrolidine-2-carboxylic acid [1-(8-cyano-quinolin-5-yl)-piperidin-4-ylmethyl]-amide] |
| < 1000 | CC(C)N1CCC(CC(=O)N[C@@H]2C[C@H](C(F)(F)F)CN(c3ccc(C#N)c4ncccc34)C2)CC1 [Compound 585, N-[(3R,5S)-1-(8-Cyano-quinolin-5-yl)-5-trifluoromethyl-piperidin-3-yl]-2-(1-isopropyl-piperidin-4-yl)-acetamide] |
| > 10000 | CC(C)C(C)C(=O)N[C@@H]1C[C@H](C)CN(c2ccnc3nccnc23)C1 (stereo partly drawn) [Compound 168, 2,3-dimethyl-N-[(3R,5S)-5-methyl-1-[pyrido[2,3-b]pyrazin-8-yl]piperidin-3-yl]butanamide] |
| < 1000 | CN1CCN(CC(=O)N[C@H]2C[C@@H](C(F)(F)F)CN(c3ccc(C#N)c4nccnc34)C2)CC1 (relative stereo) [Compound 229, cis-N-[1-(8-cyanoquinoxalin-5-yl)-5-(trifluoromethyl)piperidin-3-yl]-2-(4-methylpiperazin-1-yl)acetamide] |
| < 1000 | C[C@H]1C[C@@H](NC(=O)C2CCCN2C)CN(c2ccc(C#N)c3nccnc23)C1 (stereo partly drawn) [Compound 171, N-[(3R,5S)-1-(8-cyanoquinoxalin-5-yl)-5-methylpiperidin-3-yl]-1-methylpyrrolidine-2-carboxamide] |
| < 1000 | C[C@H]1C[C@@H](NC(=O)CN)CN(c2ccc(C#N)c3nccnc23)C1 [Compound 35, 2-amino-N-((3R,5S)-1-(8-cyanoquinoxalin-5-yl)-5-methylpiperidin-3-yl)acetamide hydrochloride] |
| 1000 to 10000 | C[C@H]1C[C@@H](N)CN(c2c(F)cc(C#N)c3nccnc23)C1 [Compound 342, 8-[(3R,5S)-3-amino-5-methylpiperidin-1-yl]-7-fluoroquinoxaline-5-carbonitrile] |
| 1000 to 10000 | CC(C)[C@H](O)C(=O)NC1CC(C2CC2)CN(c2ccc(C#N)c3nccnc23)C1 (single isomer, unassigned) [Compound 173] |
| 1000 to 10000 | CC(Cl)C(=O)NC1CN(c2ccc(C#N)c3nccnc23)CC(F)(F)C1 (stereo not shown) [Compound 506, 2-Chloro-N-[1-(8-cyano-quinoxalin-5-yl)-5,5-difluoro-piperidin-3-yl]-propionamide] |
| < 1000 | C[C@@H]1C[C@H](CN2CCC(N3CCOCC3)CC2)CN(c2ccc(C(F)(F)F)c3ncccc23)C1 (relative stereo) [Compound 535, cis-5-[3-Methyl-5-(4-morpholin-4-yl-piperidin-1-ylmethyl)-piperidin-1-yl]-8-trifluoromethyl-quinoline] |
| 1000 to 10000 | CCC(C)C(=O)N[C@@H]1C[C@H](C)CN(c2ccc(C#N)c3nccnc23)C1 (single isomer, unassigned) [Compound 155] |
| 1000 to 10000 | COC(C)C(=O)N[C@@H]1C[C@H](C)CN(c2ccc(C#N)c3nccnc23)C1 (single isomer, unassigned) [Compound 159] |
| < 1000 | NC1CN(c2ccc(C(F)(F)F)c3ncccc23)CC(F)(F)C1 (stereo not shown) [Compound 510, 5,5-Difluoro-1-(8-trifluoromethyl-quinolin-5-yl)-piperidin-3-ylamine] |

| IC50 [nM] | Compound |
| --- | --- |
| 1000 to 10000 | C[C@H]1C[C@@H](NC(C)(C)CO)CN(c2ccc(C(F)(F)F)c3ncccc23)C1 [Compound 242, 2-methyl-2-[[(3R,5S)-5-methyl-1-[8-(trifluoromethyl)quinolin-5-yl]piperidin-3-yl]amino]propan-1-ol] |
| < 1000 | C[C@H]1C[C@@H](NC(=O)[C@@H](N)c2ccccc2)CN(c2ccc(C#N)c3nccnc23)C1 [Compound 117, (2S)-2-amino-N-[(3R,5S)-1-(8-cyanoquinoxalin-5-yl)-5-methylpiperidin-3-yl]-2-phenylacetamide] |
| < 1000 | C[C@H]1C[C@@H](NC(=O)CC(C)(C)O)CN(c2ccc(C(F)(F)F)c3ncccc23)C1 [Compound 485] |
| < 1000 | C[C@H]1C[C@@H](N)CN(c2ccc(C(N)=O)c3ncccc23)C1 [Compound 180, 5-[(3R,5S)-3-amino-5-methylpiperidin-1-yl]quinoline-8-carboxamide] |
| < 1000 | C[C@H]1C[C@@H](N)CN(c2ccc(C#N)c3ncncc23)C1 [Compound 74, 5-((3R,5S)-3-Amino-5-methyl-piperidin-1-yl)-quinazoline-8-carbonitrile] |
| < 1000 | Cc1ncc(N2C[C@@H](C)C[C@@H](NC(=O)CC3CCN(C)CC3)C2)c2cccnc12 [Compound 554, N-[(3R,5S)-5-Methyl-1-(8-methyl-[1,7]naphthyridin-5-yl)-piperidin-3-yl]-2-(1-methyl-piperidin-4-yl)-acetamide] |
| < 1000 | CC(CN(C)C)NC(=O)C1CCN(c2ccc(C#N)c3ncccc23)CC1 (stereo not shown) [Compound 420, 1-(8-Cyano-quinolin-5-yl)-piperidine-4-carboxylic Acid (2-dimethylamino-1-methyl-ethyl)-amide] |
| > 10000 | C[C@H]1C[C@@H](NC(=O)CC(O)C(C)(C)C)CN(c2ccnc3nccnc23)C1 (single isomer, unassigned) [Compound 148] |
| < 1000 | C[C@H]1C[C@@H](NC(=O)CC(C)(C)CN)CN(c2ccc(C(F)(F)F)c3ncccc23)C1 [Compound 291, 4-amino-3,3-dimethyl-N-[(3R,5S)-5-methyl-1-[8-(trifluoromethyl)quinolin-5-yl]piperidin-3-yl]butanamide] |
| > 10000 | Cc1cc2c(N3C[C@@H](C)C[C@@H](N)C3)ccnc2n1C [Compound 9, (3R,5S)-1-(1,2-dimethyl-1H-pyrrolo[2,3-b]pyridin-4-yl)-5-methylpiperidin-3-amine] |
| > 10000 | CC(C)[C@H](O)C(=O)NC1CC(C2CC2)CN(c2ccc(C#N)c3nccnc23)C1 (single isomer, unassigned) [Compound 174] |
| 1000 to 10000 | CCN(C)[C@H](C)C(=O)N[C@@H]1C[C@H](C)CN(c2ccnc3nccnc23)C1 [Compound 100, (2R)-2-[ethyl(methyl)amino]-N-[(3R,5S)-5-methyl-1-[pyrido[2,3-b]pyrazin-8-yl]piperidin-3-yl]propanamide] |
| < 1000 | N#Cc1ccc(N2CCC(C(=O)NCCN3CCCCC3)CC2)c2cccnc12 [Compound 403, 1-(8-Cyano-quinolin-5-yl)-piperidine-4-carboxylic acid (2-piperidin-1-yl-ethyl)-amide] |
| 1000 to 10000 | C[C@H]1C[C@@H](NC(=O)CC(C)(C)C)CN(c2ccnc3nccnc23)C1 [Compound 41, 3,3-dimethyl-N-((3R,5S)-5-methyl-1-(pyrido[2,3-b]pyrazin-8-yl)piperidin-3-yl)butanamide] |
| < 1000 | Cc1cnc2c(N3C[C@@H](C)C[C@@H](N)C3)ccc(C#N)c2n1 [Compound 525, 8-((3R,5S)-3-Amino-5-methyl-piperidin-1-yl)-3-methyl-quinoxaline-5-carbonitrile] |
| > 10000 | C[C@H]1C[C@@H](NC(=O)CN2CCOCC2)CN(c2ccnc3nccnc23)C1 [Compound 110, N-[(3R,5S)-5-methyl-1-[pyrido[2,3-b]pyrazin-8-yl]piperidin-3-yl]-2-(morpholin-4-yl)acetamide] |
| < 1000 | C[C@H]1C[C@@H](N)CN(c2ccc(C#N)c3nccnc23)C1 [Compound 12, 8-((3R,5S)-3-amino-5-methylpiperidin-1-yl)quinoxaline-5-carbonitrile] |
